Results reported in the supplement of paper PMC10307832.

Columns and labels:
Assay in all cases: relative viability (nuclei count vs DMSO), 5 days (fraction); higher = more cells survive
NCI-H1666 = tested on: NCI-H1666
Summary of the method: (§1)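 Lung cancer cell lines in 1536-well plates got either a single drug or a fixed anchor-drug dose together with five library-drug doses (not always all listed) in √10 steps, by pin tool, on the day after seeding. Nuclei were counted after 5 days, and relative viability is the treated-to-vehicle ratio of nuclei counts. Values are medians of duplicate plates.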

ChaGo-K-1 = tested on: ChaGo-K-1
Summary of the method: as §1

HCC-15 = tested on: HCC-15
Summary of the method: as §1

LC-2-ad = tested on: LC-2-ad
Summary of the method: as §1

NCI-H661 = tested on: NCI-H661
Summary of the method: as §1

NCI-H1651 = tested on: NCI-H1651
Summary of the method: as §1

UMC-11 = tested on: UMC-11
Summary of the method: as §1

NCI-H650 = tested on: NCI-H650
Summary of the method: as §1

LU99A = tested on: LU99A
Summary of the method: as §1

LXF-289 = tested on: LXF-289
Summary of the method: as §1

SK-MES-1 = tested on: SK-MES-1
Summary of the method: as §1

NCI-H322M = tested on: NCI-H322M
Summary of the method: as §1

NCI-H1944 = tested on: NCI-H1944
Summary of the method: as §1

NCI-H2342 = tested on: NCI-H2342
Summary of the method: as §1

PC-3 [JPC-3] = tested on: PC-3 [JPC-3]
Summary of the method: as §1

H3255 = tested on: H3255
Summary of the method: as §1

LK-2 = tested on: LK-2
Summary of the method: as §1

LCLC-97TM1 = tested on: LCLC-97TM1
Summary of the method: as §1

NCI-H838 = tested on: NCI-H838
Summary of the method: as §1

NCI-H596 = tested on: NCI-H596
Summary of the method: as §1

HCC-78 = tested on: HCC-78
Summary of the method: as §1

NCI-H2087 = tested on: NCI-H2087
Summary of the method: as §1

NCI-H358 = tested on: NCI-H358
Summary of the method: as §1

BEN = tested on: BEN
Summary of the method: as §1

CC(C)Oc1cc(Nc2nc(N[C@@H](C)c3ccc(F)cn3)ncc2Cl)n[nH]1 [AZ23] + COc1cccc2cc(-c3nc([C@H]4CC[C@H](C(=O)O)CC4)n4ncnc(N)c34)[nH]c12 [OSI-027] (partner 0.5 µM)
relative viability (NCI-H1666; first compound 0.01 µM): 0.847 | relative viability (NCI-H1666; first compound 0.03162 µM): 0.849 | relative viability (NCI-H1666; first compound 0.3162 µM): 0.823 | relative viability (ChaGo-K-1; first compound 0.01 µM): 0.641 | relative viability (ChaGo-K-1; first compound 0.03162 µM): 0.593 | relative viability (ChaGo-K-1; first compound 0.3162 µM): 0.695 | relative viability (HCC-15; first compound 0.01 µM): 0.687 | relative viability (HCC-15; first compound 0.03162 µM): 0.665 | relative viability (HCC-15; first compound 0.3162 µM): 0.684 | relative viability (LC-2-ad; first compound 0.01 µM): 0.953 | relative viability (LC-2-ad; first compound 0.03162 µM): 0.802 | relative viability (LC-2-ad; first compound 0.3162 µM): 0.672 | relative viability (NCI-H661; first compound 0.01 µM): 0.666 | relative viability (NCI-H661; first compound 0.03162 µM): 0.766 | relative viability (NCI-H661; first compound 0.3162 µM): 0.755 | relative viability (NCI-H1651; first compound 0.03162 µM): 0.77 | relative viability (NCI-H1651; first compound 0.3162 µM): 0.881 | relative viability (UMC-11; first compound 0.01 µM): 0.429 | relative viability (UMC-11; first compound 0.03162 µM): 0.505 | relative viability (UMC-11; first compound 0.3162 µM): 0.494 | relative viability (NCI-H650; first compound 0.01 µM): 0.463 | relative viability (NCI-H650; first compound 0.03162 µM): 0.564 | relative viability (NCI-H650; first compound 0.3162 µM): 0.579 | relative viability (LU99A; first compound 0.01 µM): 0.264 | relative viability (LU99A; first compound 0.03162 µM): 0.312 | relative viability (LU99A; first compound 0.3162 µM): 0.286 | relative viability (LXF-289; first compound 0.01 µM): 0.862 | relative viability (LXF-289; first compound 0.03162 µM): 0.857 | relative viability (LXF-289; first compound 0.3162 µM): 0.96 | relative viability (SK-MES-1; first compound 0.03162 µM): 0.711 | relative viability (SK-MES-1; first compound 0.3162 µM): 0.745 | relative viability (NCI-H322M; first compound 0.03162 µM): 0.594 | relative viability (NCI-H322M; first compound 0.3162 µM): 0.521 | relative viability (NCI-H1944; first compound 0.01 µM): 0.401 | relative viability (NCI-H1944; first compound 0.03162 µM): 0.456 | relative viability (NCI-H1944; first compound 0.3162 µM): 0.498 | relative viability (NCI-H2342; first compound 0.01 µM): 0.702 | relative viability (NCI-H2342; first compound 0.03162 µM): 0.593 | relative viability (NCI-H2342; first compound 0.3162 µM): 0.569 | relative viability (PC-3 [JPC-3]; first compound 0.01 µM): 0.857 | relative viability (PC-3 [JPC-3]; first compound 0.03162 µM): 0.71 | relative viability (PC-3 [JPC-3]; first compound 0.3162 µM): 0.742 | relative viability (H3255; first compound 0.01 µM): 0.55 | relative viability (H3255; first compound 0.03162 µM): 0.618 | relative viability (H3255; first compound 0.3162 µM): 0.635 | relative viability (LK-2; first compound 0.01 µM): 0.176 | relative viability (LK-2; first compound 0.03162 µM): 0.198 | relative viability (LK-2; first compound 0.3162 µM): 0.183 | relative viability (LCLC-97TM1; first compound 0.01 µM): 0.495 | relative viability (LCLC-97TM1; first compound 0.03162 µM): 0.519 | relative viability (LCLC-97TM1; first compound 0.3162 µM): 0.586 | relative viability (NCI-H838; first compound 0.01 µM): 0.437 | relative viability (NCI-H838; first compound 0.03162 µM): 0.402 | relative viability (NCI-H838; first compound 0.3162 µM): 0.424 | relative viability (NCI-H596; first compound 0.01 µM): 0.711 | relative viability (NCI-H596; first compound 0.03162 µM): 0.834 | relative viability (NCI-H596; first compound 0.3162 µM): 0.671 | relative viability (HCC-78; first compound 0.01 µM): 0.52 | relative viability (HCC-78; first compound 0.03162 µM): 0.349 | relative viability (HCC-78; first compound 0.3162 µM): 0.322 | relative viability (NCI-H2087; first compound 0.01 µM): 0.675 | relative viability (NCI-H2087; first compound 0.03162 µM): 0.477 | relative viability (NCI-H2087; first compound 0.3162 µM): 0.459 | relative viability (NCI-H358; first compound 0.01 µM): 0.682 | relative viability (NCI-H358; first compound 0.03162 µM): 0.725 | relative viability (NCI-H358; first compound 0.3162 µM): 0.805 | relative viability (BEN; first compound 0.01 µM): 0.312 | relative viability (BEN; first compound 0.03162 µM): 0.287 | relative viability (BEN; first compound 0.3162 µM): 0.268
